Test results reported in PubChem BioAssay (NCI).
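Growth conditions: 96-well plates. Treatment: test compound, 48 hours, 5 concentrations. Analysis: linear interpolation between bracketing concentrations; unreached endpoints set to highest concentration. The concentration for 50% growth inhibition is given as GI50. Definition used: TGI = concentration required for complete inhibition of growth.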

Experiments:
Test in all cases: NCI tumour cell line growth inhibition, 48 h
A549 NSCLC = system: A549 NSCLC
IGROV1 ovarian = system: IGROV1 ovarian
NCI-H522 lung = system: NCI-H522 lung
RXF 393 renal = system: RXF 393 renal
HCT-15 colon = system: HCT-15 colon
MDA-MB-468 breast = system: MDA-MB-468 breast
MOLT-4 leukemia = system: MOLT-4 leukemia
UACC-62 melanoma = system: UACC-62 melanoma
K-562 leukemia = system: K-562 leukemia
UO-31 renal = system: UO-31 renal
SK-MEL-2 melanoma = system: SK-MEL-2 melanoma
786-0 renal = system: 786-0 renal
NCI-H460 lung = system: NCI-H460 lung
ACHN renal = system: ACHN renal
LOX IMVI melanoma = system: LOX IMVI melanoma
SF-295 CNS = system: SF-295 CNS
HCC-2998 colon = system: HCC-2998 colon
HT29 colon = system: HT29 colon
DU-145 prostate = system: DU-145 prostate
OVCAR-8 ovarian = system: OVCAR-8 ovarian
BT-549 breast = system: BT-549 breast
HL-60(TB) leukemia = system: HL-60(TB) leukemia
T-47D breast = system: T-47D breast
SNB-75 CNS = system: SNB-75 CNS
OVCAR-3 ovarian = system: OVCAR-3 ovarian
UACC-257 melanoma = system: UACC-257 melanoma
MDA-MB-231 breast = system: MDA-MB-231 breast
MALME-3M melanoma = system: MALME-3M melanoma
SK-OV-3 ovarian = system: SK-OV-3 ovarian
NCI-H23 lung = system: NCI-H23 lung

CC1(C)CC[C@]2(C(=O)O)CC[C@]3(C)C(=CCC4[C@@]5(C)C[C@@H](O)[C@@H]6OC(c7ccccc7Br)OC[C@@]6(C)C5CC[C@]43C)C2C1 (some centres undefined) was tested, and the TGI (A549 NSCLC) was 50.1 µM, the GI50 (IGROV1 ovarian) was 4.53 µM and the TGI (IGROV1 ovarian) was 30.1 µM. For the same molecule, the GI50 (NCI-H522 lung) was 3.45 µM, the TGI (NCI-H522 lung) was 78.4 µM and the GI50 (RXF 393 renal) was 4.37 µM. It also gave a TGI (RXF 393 renal) of 8.95 µM, a GI50 (HCT-15 colon) of 2.21 µM and a TGI (HCT-15 colon) of 12.9 µM. It also gave a GI50 (MDA-MB-468 breast) of 2.83 µM, a TGI (MDA-MB-468 breast) of 20.7 µM and a GI50 (MOLT-4 leukemia) of 2.67 µM. The TGI (MOLT-4 leukemia) was 23.4 µM, the GI50 (UACC-62 melanoma) was 4.8 µM and the TGI (UACC-62 melanoma) was 24.8 µM. For the same molecule, the GI50 (K-562 leukemia) was 2.68 µM, the TGI (K-562 leukemia) was > 100 µM and the GI50 (UO-31 renal) was 2.68 µM. The TGI (UO-31 renal) was 12.4 µM, the GI50 (SK-MEL-2 melanoma) was 4.03 µM and the TGI (SK-MEL-2 melanoma) was 20.7 µM. It also gave a GI50 (786-0 renal) of 3.61 µM, a TGI (786-0 renal) of 15.3 µM and a GI50 (NCI-H460 lung) of 2.51 µM. For the same molecule, the TGI (NCI-H460 lung) was 9.77 µM, the GI50 (ACHN renal) was 2.53 µM and the TGI (ACHN renal) was 18.7 µM. The GI50 (LOX IMVI melanoma) was 3.49 µM, the TGI (LOX IMVI melanoma) was 13.9 µM and the GI50 (SF-295 CNS) was 2.79 µM. It also gave a TGI (SF-295 CNS) of 18.8 µM, a GI50 (HCC-2998 colon) of 3.63 µM and a TGI (HCC-2998 colon) of 20.8 µM. The GI50 (HT29 colon) was 3.42 µM, the TGI (HT29 colon) was 16.7 µM and the GI50 (DU-145 prostate) was 3.71 µM. The TGI (DU-145 prostate) was > 100 µM, the GI50 (OVCAR-8 ovarian) was 3.48 µM and the TGI (OVCAR-8 ovarian) was > 100 µM. It also gave a GI50 (BT-549 breast) of 3.11 µM, a TGI (BT-549 breast) of 13.1 µM and a GI50 (HL-60(TB) leukemia) of 2.57 µM. For the same molecule, the TGI (HL-60(TB) leukemia) was 9.75 µM, the GI50 (T-47D breast) was 3.46 µM and the TGI (T-47D breast) was > 100 µM. For the same molecule, the GI50 (SNB-75 CNS) was 2.44 µM, the TGI (SNB-75 CNS) was > 100 µM and the GI50 (OVCAR-3 ovarian) was 2.99 µM. It also gave a TGI (OVCAR-3 ovarian) of 12.7 µM, a GI50 (UACC-257 melanoma) of 4.12 µM and a TGI (UACC-257 melanoma) of 30.9 µM. It also gave a GI50 (MDA-MB-231 breast) of 4.01 µM, a TGI (MDA-MB-231 breast) of 21.9 µM and a GI50 (MALME-3M melanoma) of 3.78 µM. It also gave a TGI (MALME-3M melanoma) of 19.3 µM, a GI50 (SK-OV-3 ovarian) of 3.8 µM and a TGI (SK-OV-3 ovarian) of 44.1 µM. For the same molecule, the GI50 (NCI-H23 lung) was 3.72 µM and the TGI (NCI-H23 lung) was 43.7 µM.
